The numbers were not newly measured in patent US8206772B2, “Structured lipid compositions and methods of formulation thereof” (Kraft Foods Global Brands LLC, priority 2007, dated 2012), which cites them from elsewhere.

The conditions of series [1]: rats, 5 percent and 10 percent of the diet.
The conditions of series [2]: infants fed enriched milk.

On to `CC(=O)OCC(COC(C)=O)OC(C)=O` [triacetin], for which, in series [1], the “nutritional value / toxicity when fed” value is given as “nutritious”. Turning to `CCCC(=O)OCC(COC(=O)CCC)OC(=O)CCC` [tributyrin], the “nutritional value / toxicity when fed” value in series [1] is “nutritious”. Also, in series [2], the “fat retained per day” value is on record as 90.1 to 90.2%. Consider `CC(C)CC(=O)OCC(COC(=O)CC(C)C)OC(=O)CC(C)C` [triisovalerin], for which the “nutritional value / toxicity when fed” value in series [1] is “toxic”.
